Pah-mRNA expression and PAH immunoreactive protein data for one compound are collected here from patent publication US8338423B2, “Compositions for the treatment of hyperphenylalaninemia” (Universidad de Zaragoza, priority 2007, dated 2012).

For one test, the system named is Pah-mRNA. Nature of the test: Pah-mRNA expression in mouse liver by quantitative real-time PCR. The format is in vivo. To be noted: treated mice compared to controls, 10 days oral. The method, then:
Animal experiments were performed by Beat Töny (University of Zurich Children's Hospital). 25 μl/day of 10% DMSO (Group 1, control) or the solutions of Compound 11 (Group 2) or Compound 13 (Group […]) were administered orally for 10 days to young adult C57BI/6 mice (all females) exactly 12 weeks old and with weight between 19 to 23 g were in each group, i.e. in Group 2 and 3 animals were given about 5.9 mg/kg/day. Five animals were treated in each group, and no weight change was experienced upon treatment, i.e. <5% change between start and end. Animals were sacrificed at day 10 of treatment, and their livers were sectioned in two frozen immediately in liquid nitrogen, then the frozen half-livers were sent to the Department of Biomedicine, University of Bergen in dry ice. […]
The concentration of soluble protein was about 35 mg/ml of liver extract, similar in each group. The hepatic PAH response to oral supplementation of DMSO and of Compounds 11, 13 in 10% DMSO was analyzed b determining: • i) PAH activity, as described, after removal of free amino acids and contaminants of low molecular weight by using Zebra™ Desalt Spin columns(Pierce). • ii) Pah-mRNA expression by quantitative real-time PCR analysis, performed as reported

Test [1] relates to PAH protein expressed in A293 cells. In words: Immunoreactive PAH protein (Western blot) in transfected A293 cells. The format is cell-based, human. To be noted: 40 μM compound, 24 h (FIG. 4B). As for the experimental part:
Human embryonic kidney cells (A293; purchased from Invitrogen) were grown in Dulbecco's Modified Eagle's Medium (DMEM) containing 4.5 g/l glucose, 10% (v/v) fetal calf serum, 2 mM L-glutamine, 100 i.u./ml penicillin, 100 μg/ml streptomycin and 0.25 mg/ml G-418. A293 cells were transiently transfected with 1 μg of pcDNA3-PAH expression vector (wt or mutant PAH constructs), using the lipofectamine system (Gibco, Invitrogen) as described by the manufacturer. Pharmacological chaperones were added after 5 h of transfection (final concentration 40 μM ligand in DMSO 1%), incubated for 24 h and cells were then harvested and stored at −80° C. […]
Western blot analyses were performed after SDS-PAGE (10% acrylamide) using as primary antibody a monoclonal mouse ant-human PAH (Chemicon, Australia) and as secondary antibody a goat anti-mouse HRP conjugate (Bio-Rad, US). Detection was performed using a chemiluminiscence method (ECL; Amersham Biosciences) and quantified an a Fluor-S™ Multilmager (Bio-Rad, US) using Quantify one v. […]
After transfection of A293 cells with constructs carrying wt-PAH and PKU mutants cDNA, the cells were incubated for 24 h in the presence or absence of 40 μM of hit compounds 11 and 13. Cell were harvested and immunoreactive PAH protein and PAH activity were measured in soluble cell extracts. […]
A general note: Immunoblotting shows a protein as a band on a membrane.

Structures are written as SMILES.

As to `Nc1c(-c2ccc3ccccc3n2)c2ccc([N+](=O)[O-])cc2c(=O)n1Cc1ccccc1` [Compound 11, 3-amino-2-benzyl-7-nitro-4-(2-quinolyl)-1,2-dihydroisoquinolin-1-one], the Pah-mRNA expression entry in the test on Pah-mRNA is on record as “No change”. Also, the PAH immunoreactive protein entry in test [1] is “increase in PAH immunoreactive protein was observed”.
